Measurements from patent US11952364B2, “TRK inhibitors useful as anticancer drugs” (TYLIGAND BIOSCIENCE (SHANGHAI) LIMITED, priority 2018, dated 2024).
Read-outs that look alike come from different tables or passages of the source.

Tested on: Ba/F3 LMNA-NTRK1-G667C cells
Assay: Proliferation of Ba/F3 LMNA-NTRK1-G667C cells (CellTiter-Glo)
Assay type: cell-based, mouse
Conditions: Mus musculus
Text: Ba/F3 LMNA-NTRK1-G667C is a stable transgenic cell line constructed by KYinno Biotechnology Co., Ltd. on mouse primary B cell Ba/F3 wherein NTRK1 has a mutation of G to Cat position 667 and is highly expressed and fused with LMNA to form LMNA-NTRK1-G667C. • [Test method]: Promega's CellTiter-Glo® Luminescent Cell Viability Assay kit was used to evaluate the inhibitory activity of the compounds on the proliferation of Ba/F3 LMNA-NTRK1-G667C cells. • [Instrument]: Spectramax M3 multifunctional microplate reader from Molecular Devices. • [Test materials]: Ba/F3 LMNA-NTRK1-G667C cell line (constructed by KYinno Co., Ltd. (Beijing)), 96-well transparent flat-bottomed black-walled cell culture plate (Corning, cat #3603), RPMI-1640 media (GE, cat #SH30027.01), fetal bovine serum FBS (Thermo Fisher, cat #10099-141), CellTiter-Glo® Luminescent Cell Viability Assay kit (Promega, cat #G7572), PBS (Solarbio, cat #P1020), DMSO (Sigma, cat #D2650). • [Experimental procedure]: When resuscitating Ba/F3 LMNA-NTRK1-G667C cells, the freezing tube was quickly shaken in a 37° C. water bath to melt within 1 minute. The thawed cell suspension was mixed uniformly with RPMI1640 medium containing 10% FBS, centrifuged at 1000 rpm for 5 minutes, and the supernatant discarded. 5 mL of complete medium (RPMI1640 medium with 10% FBS) was taken to resuspend the cell pellets, charged into a cell culture flask with a bottom area of 25 cm^2, and incubated in a cell incubator at 37° C., 95% humidity and 5% CO2. Cells were allowed to passage when the number of cells reached about 10^6 cells/mL. For cell passage, the old cell suspension was directly pipetted evenly, 1/5 of the cell suspension was kept, 4 mL of new complete medium was added, after pipetting evenly, the cell flask was placed in the cell incubator for further culturing. Cell plating was performed when the number of cells reached about 10^6 cells/mL again. For cell plating, 1/5 of the cell suspension was kept for further culturing as in the cell passage method, and the remaining 4/5 of the cell suspension was placed in a 15 mL centrifuge tube, detected for cell viability by Trypan blue exclusion method to ensure that cell viability was above 90%. A cell suspension with a density of 5.56×10^4 viable cells/mL was prepared with complete medium, and 90 μL of such cell suspension was added to a 96-well cell culture plate to obtain the cell density of 5000 viable cells/mL in the cell culture plate. A control group containing no cells, no compound and only complete medium (i.e. culture medium control) and a control group containing no compound but containing cells (i.e. cell control) were set. The cell plate was placed in a cell incubator overnight. The 10 mM compound stock solution in DMSO was first serially diluted with DMSO at a dilution factor of 3.16 times, to obtain 9 concentrations, and the 10th concentration was set as DMSO control without compound. Then, PBS was used to dilute the DMSO solutions of compounds of different concentrations, at a dilution factor of 100 times, so that the DMSO concentration in the compound solution of each concentration was 1%. Finally, 10 μL of each of the above solutions was added to the corresponding cell culture plate, so that the initial compound concentration was 10 μM, with the remaining concentrations being successively diluted at a dilution factor of 3.16 times, and the DMSO content in the cell culture plate was 0.1%. The cell plate was placed in a cell incubator and cultured for 72 hours. For endpoint detection, the CellTiter-Glo reagent was melted, and the cell plate was moved to room temperature to equilibrate for 30 minutes, added with 100 μL of CellTiter-Glo for each well, and shaken on an orbital shaker for 5 minutes to fully lyse the cells. The plate was kept at room temperature for 20 minutes to stabilize the luminescence signal, and the luminescence value of each well was scanned with a multi-functional microplate reader at full wavelength. • [Test samples] […]

[1] = BaF3, 72 h, Table 4, 72 hours, read-out: Ba/F3 LMNA-NTRK1-G667C, IC50

SMILES	IC50 (BaF3, Table 9, read-out: Ba/F3 LMNA-NTRK1-G667C cell proliferation inhibitory activity (IC50)) [µM]	IC50 [1] [µM]	IC50 (BaF3, Table 4-1, separate test, read-out: Ba/F3 LMNA-NTRK1-G667C, IC50) [µM]	IC50 (BaF3, Table 4-2, separate test, read-out: Ba/F3 LMNA-NTRK1-G667C, IC50) [µM]
CC(C)Oc1ccc(C(=O)Nc2ccc(Oc3cc4cnn5c4c(c3-c3cn[nH]c3)CC5)c(F)c2)c(=O)n1-c1ccc(F)cc1 [Example 34, N-(4-((5-(1H-pyrazol-4-yl)-6,7-dihydropyrrolo[3,2,1-hi]-indazol-4-yl)oxy)-3-fluorophenyl)-1-(4-fluorophenyl)-6-isopropoxy-2-oxo-12-dihydropyrndine-3-carboxamide]	0.0237	–	–	–
O=C(Nc1cnn2ccc(N3CCC[C@@H]3c3cc(F)ccc3F)nc12)N1CC[C@H](O)C1 [LOXO-101, Larotrectinib, reference compound]	–	2.41	–	–
Cc1ccc(C(=O)Nc2ccc(Oc3cc4cnn(C)c4cc3-c3cn[nH]c3)c(F)c2)c(=O)n1-c1ccc(F)cc1 [Merestinib, reference compound]	–	0.0011	0.001	0.0141
